Experimental findings from PubChem BioAssay AID1645848 are described below.

Converted amounts (≈) assume the structure as drawn.

For the data set the following is noted: buffer; pH 7.4; 6.0 h; 150.0 µM.
The kinetic solubility is solubility judged after dilution from a stock solution rather than from solid. For `Cc1nn2c(c1-c1ccccc1-c1ccccc1)N(Cc1ccc(O)cc1)CCC2`, the kinetic solubility is < 1 µg/mL. Next, `CN1C(=O)c2ccccc2[S@](=O)c2ccc(C(=O)NCc3ccc(Br)cc3)cc21`: < 1 µg/mL; `Cc1ccc(-n2c(=O)c3oc4ccccc4c3n(CC(=O)Nc3ccc(F)c(Cl)c3)c2=O)cc1C`: < 1 µg/mL.

`CC(C)Oc1ccc(-c2ccc(=O)n(CC(=O)NCCc3ccccc3)n2)cc1` had a kinetic solubility of 16.8 µg/mL (≈ 43 µM). In turn, `CCc1[nH]c2ccc(CNC(=O)Cc3cnc4c(C)cccn34)cc2c1C` came in with a solubility (kinetic) of 17.3 µg/mL (≈ 47.9 µM).

`O=c1[nH]c(C2CCCN(CC3CCCCC3)C2)nn1-c1ccc(Cl)cc1` (configuration not stated): the solubility (kinetic) is < 1 µg/mL. In turn, `CCOc1ccccc1C(=O)NC1CCN(c2cc(C)cc(C)c2)C1=O` (configuration not stated) showed a solubility (kinetic) of 26.8 µg/mL (≈ 75.9 µM). The same measure for `CCOC(=O)c1ccc(-n2cnc3cc(C(=O)N4CCCCC4)ccc32)cc1`: > 56 µg/mL; for `COCc1cc(C)nc(SCC(=O)c2ccc(O)c(O)c2)c1C#N`: 13.2 µg/mL (≈ 38.2 µM). Next, `CC1=C(C(=O)Nc2nc3ccccc3s2)C(c2[nH]ncc2Cl)N=C(Nc2nc3ccccc3o2)N1` (configuration not stated): < 1 µg/mL.

For the compound `COc1ccc(C2c3c(ncn(CCN4CCOCC4)c3=N)Oc3ccc4ccccc4c32)cc1OC` (configuration not stated), the solubility (kinetic) was 4.21 µg/mL (≈ 8.44 µM). As for `Cc1ccc(S(=O)(=O)Nc2cc(F)ccc2C(=O)Nc2nc(-c3ccccc3)cs2)cc1`, the kinetic solubility is < 1 µg/mL. As to `COc1ccc(Cl)cc1NC(=O)c1sc2nc3c(cc2c1N)N1CCC3CC1`, the kinetic solubility is < 1 µg/mL.

In turn, `CCOC(=O)c1csc(NC(=O)c2ccncc2NS(=O)(=O)c2ccc(C)cc2)n1` displayed a kinetic solubility of 3.2 µg/mL (≈ 7.16 µM). Consider `Cc1nn(Cc2ccc(Cl)cc2)c(C)c1NC(=O)c1cc(-c2ccc3c(c2)OCO3)on1`, for which the kinetic solubility is < 1 µg/mL. Consider `O=C(Cc1ccc(Cl)c(Cl)c1)Nc1ccc(S(=O)(=O)Nc2ccon2)cc1`, for which the kinetic solubility is > 100 µg/mL. With `COc1cc(C(=O)NC2CCCc3c2[nH]c2ccccc32)cc(OC)c1OC` (configuration not stated), the kinetic solubility is 7.26 µg/mL (≈ 19.1 µM). The same measure for `O=C(Nc1ccc([N+](=O)[O-])cc1Cl)c1cc(Cl)ccc1O`: 1.14 µg/mL (≈ 3.47 µM).

As for `Cc1ccccc1OCC(O)CO` (configuration not stated), the kinetic solubility was > 27 µg/mL. As to `COc1ccc(-c2ccc3nc(-c4cc(F)ccc4F)oc3c2)c(OC)c1OC`, the solubility (kinetic) was < 1 µg/mL. Next, `COc1cc(NC(=O)c2cc(-c3ccccc3O)no2)cc(OC)c1OC`: 1.09 µg/mL (≈ 2.93 µM). `COC(=O)CNC(=O)c1nc(-c2ccc([S+](C)(=O)[O-])cc2)c2ccccn12` had a solubility (kinetic) of 2.27 µg/mL (≈ 5.87 µM).

`CC(=O)Nc1ncc(S(=O)(=O)N2CCOCC2)s1` registered a solubility (kinetic) of 26.6 µg/mL (≈ 91.1 µM). On to `COc1ccc(C)cc1Nc1c2c(nc3ccccc13)CCC2`, for which the kinetic solubility is > 45 µg/mL. As for `Cc1c(C)n(Cc2ccccc2)c2ccc(C(=O)OCCN(C)C)cc12`, the solubility (kinetic) is 33 µg/mL (≈ 94 µM).

With `CC(C)Oc1ccccc1C(=O)Nc1nc(-c2ccccc2)cs1`, the solubility (kinetic) is < 1 µg/mL. As for `Cc1ccc(-c2cc(C(=O)Nc3ccc(S(N)(=O)=O)cc3)c3cccc(C)c3n2)cc1C`, the kinetic solubility is < 1 µg/mL. The compound `OCc1cccc(-c2cc(-c3cccnc3)c3cncn3c2)c1` came in with a kinetic solubility of 18.5 µg/mL (≈ 61.4 µM). Consider `Cc1cc(-c2nnc3n2CCCCC3)c(C)n1-c1cccc(C(F)(F)F)c1`, for which the kinetic solubility was 32.8 µg/mL (≈ 87.5 µM). As for `Cc1ccc(S(=O)(=O)Nc2cnccc2C(=O)Nc2nc(-c3ccc(-c4ccccc4)cc3)cs2)cc1`, the kinetic solubility was found to be 0.487 µg/mL (≈ 0.925 µM). The same measure for `Cc1c(O)ccc2c1OC(C)(C)CC2`: 8.29 µg/mL (≈ 43.1 µM).

In the case of `Fc1ccc(Nc2nc(-c3ccncc3)nc3ccccc23)cc1F`, the solubility (kinetic) was < 1 µg/mL.

In the case of `CN1CCCC1CCOC(c1cc2nccc(C(=O)O)c2[nH]1)c1ccccc1Cl` (configuration not stated), the solubility (kinetic) is > 61 µg/mL. On to `Cc1ccnc(NC(=S)N2CCN(c3ccc(Cl)c(Cl)c3)CC2)c1`, for which the solubility (kinetic) was < 1 µg/mL. Next, `Cc1cc(NS(=O)(=O)c2ccc(C(=O)NCc3ccc(Cl)c(Cl)c3)cc2)no1`: > 65 µg/mL. In the case of `O=C(Oc1ccc[nH]c1=O)c1cc([N+](=O)[O-])cc([N+](=O)[O-])c1`, the solubility (kinetic) was > 45 µg/mL.

Compound `C#CCNC(=O)c1nc(-c2ccc(Cl)nc2)c2ccccn12` displayed a solubility (kinetic) of 2.64 µg/mL (≈ 8.5 µM). Next, `CCOc1ccc(CCNC(=O)c2cc3ncccc3n2Cc2cccc(C)c2)cc1OCC`: 36.5 µg/mL (≈ 79.7 µM).

Regarding `CC(=O)c1c(C)c2cnc(Nc3ccc(N4CCNCC4)cn3)nc2n(C2CCCC2)c1=O`, the kinetic solubility is 17.4 µg/mL (≈ 39 µM). In the case of `Cc1cc(C)nc(NC(=S)N2CCN(c3ccc(C(F)(F)F)cc3[N+](=O)[O-])CC2)c1`, the kinetic solubility is 6.89 µg/mL (≈ 15.7 µM). This solubility kinetic is about 2.5-fold lower than that of the compound before. The same measure for `CC[C@@]1(O)C(=O)OCc2c1cc1n(c2=O)Cc2c-1nc1ccccc1c2CCNC(C)C`: > 6 µg/mL; for `O=C(Nc1cn[nH]c1-c1nc2ccc(CN3CCOCC3)cc2[nH]1)NC1CC1`: > 38 µg/mL. `CCOc1ccc(NC(=O)c2ccc(F)c(S(=O)(=O)N(CC)Cc3ccccc3)c2)cc1`: the solubility (kinetic) was < 1 µg/mL.

`CCOc1ccc(CCNC(=O)c2cc3sccc3n2CCN(C)C)cc1OCC`: the solubility (kinetic) was > 63 µg/mL. The same measure for `CCOc1ccccc1N(CC(=O)Nc1cc(OC)ccc1OC)S(=O)(=O)c1ccccc1`: < 1 µg/mL; for `CCc1ccc2oc(NC3=NC(c4[nH]ncc4Cl)C4=C(CCCC4=O)N3)nc2c1` (configuration not stated): < 1 µg/mL. `O=S(=O)(Nc1nccs1)c1ccc(NCc2ccccc2)cc1` had a solubility (kinetic) of 31.9 µg/mL (≈ 92.4 µM). With `CN1CCN(C(c2ccccc2)c2ccccc2)CC1`, the solubility (kinetic) is > 39 µg/mL. On to `O=C(Nc1ccc(F)c(C(F)(F)F)c1)Nc1nnc(-c2ccncc2)s1`, for which the kinetic solubility was < 1 µg/mL. `CCCN1CNc2c(c(=O)[nH]c(=S)n2CCc2cccc(Cl)c2Cl)C1` came in with a kinetic solubility of 13.4 µg/mL (≈ 33.6 µM). Turning to `CC1=C(C(=O)Nc2ccccc2)C(c2ccccc2Br)N=C(Nc2nc3ccccc3o2)N1` (configuration not stated), the solubility (kinetic) was < 1 µg/mL. Turning to `Fc1ccc(-c2csc3ncnc(Sc4nnnn4-c4ccccc4)c23)cc1`, the solubility (kinetic) turned out to be 0.705 µg/mL (≈ 1.73 µM). Consider `CCc1nnc(NC(=O)c2nc(S(=O)(=O)Cc3ccc(C)cc3)ncc2Cl)s1`, for which the kinetic solubility is > 65 µg/mL. With `CCCN1C(CC(C)C)=NS(=O)(=O)c2cc(NC(=O)c3ccco3)ccc21`, the solubility (kinetic) is < 1 µg/mL.

As to `C[C@@H]1Cc2c([nH]c3cc(Cl)c(F)cc23)[C@]2(N1)C(=O)Nc1ccc(Cl)cc12`, the kinetic solubility amounted to 13.3 µg/mL (≈ 34.1 µM). Take `OC1(c2ccc(Cl)cc2)CCN(Cc2c[nH]c3ccccc23)CC1`: the solubility (kinetic) is > 50 µg/mL. Next, `O=C(CSc1nc(-c2ccc(F)cc2)[nH]c1-c1ccc(F)cc1)Nc1ccc2c(c1)OCCO2`: < 1 µg/mL; `NC(=O)C1CCN(c2ncc(-c3cccc(N4CCCCC4)c3)s2)CC1`: 32.9 µg/mL (≈ 88.8 µM); `CC(C)c1ccccc1-c1ncc(F)c(NCc2ccc(-c3ccn[nH]3)cc2)n1`: < 1 µg/mL. Compound `O=S(=O)(Nc1ccc(S(=O)(=O)Nc2nccs2)cc1)c1ccc2ccccc2c1` came in with a solubility (kinetic) of 33.2 µg/mL (≈ 74.6 µM). Compound `Cc1ccc(S(=O)(=O)Nc2cnccc2C(=O)Nc2cccc3ccccc23)cc1` displayed a kinetic solubility of 46.4 µg/mL (≈ 111 µM). The solubility kinetic values of the last two compounds are within 1.5-fold of each other. On to `Cc1cc(N[S+](=O)([O-])c2ccc(NC(=O)Cc3ccc(F)c(F)c3)cc2)no1`, for which the solubility (kinetic) is > 60 µg/mL. Regarding `Cc1ccc(S(=O)(=O)Nc2cnccc2C(=O)Nc2nc(-c3cc4ccccc4o3)cs2)cc1`, the kinetic solubility was found to be 0.521 µg/mL (≈ 1.06 µM). Regarding `COc1ccc(-n2c(C)cc(-c3nnc4n3CCCCC4)c2C)cc1`, the kinetic solubility was 31.9 µg/mL (≈ 94.8 µM).

Compound `COc1ccccc1Nc1ccnc(N2CCN(C(=O)c3ccc(F)cc3)CC2)n1` displayed a solubility (kinetic) of 10.8 µg/mL (≈ 26.5 µM). The same measure for `CC(=O)c1c(C)[nH]c(C(=O)Nc2cccc([S+](=O)([O-])Nc3c(C)cccc3C)c2)c1C`: < 1 µg/mL. For the compound `CCOc1ccccc1N(CC(=O)N1CCOCC1)S(=O)(=O)c1ccc(SC)cc1`, the kinetic solubility is > 67 µg/mL.

As to `NC(=O)C1CCN(c2nc(-c3cc4ccccc4o3)cs2)CC1`, the solubility (kinetic) is > 48 µg/mL. In the case of `COc1ccc(-c2c(-c3cc(C(=O)O)ccn3)ncn2C)cc1`, the solubility (kinetic) is > 46 µg/mL.

Regarding `Cc1ccccc1C(=O)N1CCc2cc(-n3cc(NC(=O)Cc4ccccc4)cn3)ccc21`, the kinetic solubility was < 1 µg/mL. Next, `Cc1ccc(C(=O)NC2CCN(c3cnn(CC4CC4)c(=O)c3)CC2)cc1C`: < 1 µg/mL; `Cn1cc(-c2nc(Nc3ccc(F)c(F)c3)c3ccccc3n2)cn1`: < 1 µg/mL; `NC(=O)C1CCN(c2nc(-c3ccc(N)cc3)cs2)CC1`: > 45 µg/mL. In the case of `CN(C)C(=O)c1cc(-c2ccc(S(C)(=O)=O)cc2)c2cnn(C)c2n1`, the solubility (kinetic) was > 53 µg/mL. `O=S(=O)(c1ccc2ccccc2c1)N1CCN(c2nc(-c3cccs3)nc3ccccc23)CC1`: the kinetic solubility was < 1 µg/mL. As for `CC(/C=C/C(=O)NO)=C\[C@@H](C)C(=O)c1ccc(N(C)C)cc1`, the kinetic solubility was > 45 µg/mL.

As to `O=C(NCc1ccc(S(=O)(=O)c2cccc(C(F)(F)F)c2)cc1)c1cnc2[nH]ncc2c1`, the kinetic solubility amounted to 5.88 µg/mL (≈ 12.8 µM). Regarding `COc1ccccc1-c1cc2c(ccn2C)c(C(=O)NCC2CCN(C)C(=O)C2)n1` (configuration not stated), the kinetic solubility was > 90 µg/mL. Take `O=C(O)c1ccc(N2C(=O)/C(=C/c3ccc(-c4ccc([N+](=O)[O-])cc4)o3)C=C2c2ccccc2)cc1`: the solubility (kinetic) was determined as 31.4 µg/mL (≈ 65.6 µM). Take `C[S+](=O)([O-])c1ccc(-c2nc(C(=O)NCc3cccnc3)n3ccccc23)cc1`: the solubility (kinetic) amounted to 11.4 µg/mL (≈ 27.9 µM).

Turning to `NC(=O)C1CCN(c2ncc(-c3cccc(N4CCOCC4)c3)s2)CC1`, the solubility (kinetic) is > 55 µg/mL.

As for `Cc1nn2c(c1-c1ccccc1OCc1ccccc1)N(C(=O)Cc1ccc3c(c1)OCO3)CCC2`, the kinetic solubility was < 1 µg/mL. Regarding `CC(C)N(CCCNC(=O)Nc1ccc(C(C)(C)C)cc1)C[C@H]1O[C@@H](n2cc(Br)c3c(N)ncnc32)[C@H](O)[C@@H]1O`, the kinetic solubility was determined as 73 µg/mL (≈ 118 µM). In the case of `COc1cccc(CNC(=O)c2c(OC)cc(=O)n3c2CCN(C(=O)c2ccc(C)cc2C)CC3)c1`, the kinetic solubility is > 72 µg/mL. As for `Cc1ccnc(NC(=O)C2CC(=O)N(c3n[nH]c4cc(Br)ccc34)C2)c1` (configuration not stated), the solubility (kinetic) is < 1 µg/mL.

Regarding `NC1(c2ccc(NC(=O)c3ccnc(-c4cc(C(=O)O)ccn4)c3)cc2)CC1`, the solubility (kinetic) stood at 2.79 µg/mL (≈ 7.46 µM). `O=C(Nc1ccc(C(=O)Nc2nccs2)cc1)c1ccc2ccccc2c1`: the kinetic solubility is < 1 µg/mL.
